Measured values reported in ChEMBL document CHEMBL1201862, “PubChem BioAssay data set” (2004).
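48-hour exposure; five concentrations; linearly interpolated endpoints. The concentration for 50% growth inhibition is given as GI50.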 The source made the active and inactive calls. No stated cut-off is given here; in the data, active = GI50 up to about 1.1 µM and inactive = higher.

Key:
Assay in all cases: NCI anticancer screen, dose series, 48 h
NCI-H23 = tested on: NCI-H23
HCT-15 = tested on: HCT-15
EKVX = tested on: EKVX
IGROV-1 = tested on: IGROV-1
OVCAR-8 = tested on: OVCAR-8
SK-MEL-28 = tested on: SK-MEL-28
UO-31 = tested on: UO-31
SNB-19 = tested on: SNB-19
NCI-H522 = tested on: NCI-H522
NCI-H226 = tested on: NCI-H226
HCT-116 = tested on: HCT-116
K562 = tested on: K562
MOLT-4 = tested on: MOLT-4
LOX IMVI = tested on: LOX IMVI
A549 = tested on: A549
SF-268 = tested on: SF-268
RXF 393 = tested on: RXF 393
MCF7 = tested on: MCF7
MDA-MB-231 = tested on: MDA-MB-231
DU-145 = tested on: DU-145

Row | Structure (SMILES) | GI50 (NCI-H23) | GI50 (HCT-15) [µM] | GI50 (EKVX) | GI50 (IGROV-1) | GI50 (OVCAR-8) | GI50 (SK-MEL-28) | GI50 (UO-31) | GI50 (SNB-19) | GI50 (NCI-H522) | GI50 (NCI-H226) | GI50 (HCT-116) | GI50 (K562) | GI50 (MOLT-4) | GI50 (LOX IMVI) | GI50 (A549) | GI50 (SF-268) | GI50 (RXF 393) | GI50 (MCF7) | GI50 (MDA-MB-231) | GI50 (DU-145)
1 | CC1CC(c2ccc([N+](=O)[O-])cc2)=Nc2ccccc2[S+]1[O-] (stereo unspecified) | 17.6 µM (inactive) | 14.6 | 23.4 µM (inactive) | 15.6 µM (inactive) | 15.5 µM (inactive) | 20 µM (inactive) | 13 µM (inactive) | 18.2 µM (inactive) | 12.2 µM (inactive) | 29.2 µM (inactive) | 2.11 µM (inactive) | 17.5 µM (inactive) | 24.8 µM (inactive) | 12.1 µM (inactive) | 20 µM (inactive) | 20.1 µM (inactive) | 11.1 µM (inactive) | – | – | –
2 | CCCCCCNC(=O)C(C)C1CCC2(C)C=CC(=O)C(C)=C2C1O (stereo unspecified) | > 94 µM (inactive) | > 100 | > 100 µM (inactive) | > 100 µM (inactive) | > 100 µM (inactive) | > 100 µM (inactive) | > 89.9 µM (inactive) | > 100 µM (inactive) | 86.3 µM (inactive) | > 100 µM (inactive) | > 100 µM (inactive) | 68.5 µM (inactive) | > 75.2 µM (inactive) | > 100 µM (inactive) | > 100 µM (inactive) | > 100 µM (inactive) | > 100 µM (inactive) | > 100 µM (inactive) | – | –
3 | COc1cc(OC)cc(N2CCC(c3c(N)nc(N)nc3Cl)CC2)c1 | > 100 µM (inactive) | 99.5 | 95.3 µM (inactive) | > 100 µM (inactive) | > 100 µM (inactive) | 52.8 µM (inactive) | 62.8 µM (inactive) | > 100 µM (inactive) | 41.3 µM (inactive) | – | – | 31.6 µM (inactive) | 31.5 µM (inactive) | > 100 µM (inactive) | 65 µM (inactive) | 98.2 µM (inactive) | > 100 µM (inactive) | – | – | –
4 | Cc1cc2c(cc1Cl)Sc1n[nH]c(=O)n1S2(=O)=O | > 100 µM (inactive) | > 100 | > 100 µM (inactive) | > 100 µM (inactive) | > 100 µM (inactive) | > 100 µM (inactive) | > 100 µM (inactive) | > 100 µM (inactive) | 87.5 µM (inactive) | > 100 µM (inactive) | > 100 µM (inactive) | > 100 µM (inactive) | > 100 µM (inactive) | > 100 µM (inactive) | > 100 µM (inactive) | > 100 µM (inactive) | – | > 100 µM (inactive) | > 100 µM (inactive) | > 100 µM (inactive)
5 | CC1(C)C(=O)OC(n2cc(F)c(=O)[nH]c2=O)C1=O (stereo unspecified) | > 100 µM (inactive) | > 100 | 39.1 µM (inactive) | – | > 100 µM (inactive) | > 100 µM (inactive) | > 100 µM (inactive) | > 100 µM (inactive) | > 100 µM (inactive) | > 100 µM (inactive) | 89.5 µM (inactive) | > 100 µM (inactive) | > 100 µM (inactive) | > 100 µM (inactive) | 66.5 µM (inactive) | > 100 µM (inactive) | > 100 µM (inactive) | – | – | –
6 | CCOC(=O)c1ccc(NC(=O)O/N=C(/Cl)CC)cc1 | 17.4 µM (inactive) | 13.5 | 16.1 µM (inactive) | 18.5 µM (inactive) | 14.9 µM (inactive) | 16.4 µM (inactive) | 17.5 µM (inactive) | 21.3 µM (inactive) | 2.77 µM (inactive) | 20.9 µM (inactive) | 8.99 µM (inactive) | 1.94 µM (inactive) | 2 µM (inactive) | – | 24.8 µM (inactive) | 19.2 µM (inactive) | 16.9 µM (inactive) | 15 µM (inactive) | 19.6 µM (inactive) | 17.4 µM (inactive)
7 | CCOC(=O)CP(=S)(S)c1ccccc1 (stereo unspecified) | > 100 µM (inactive) | – | > 100 µM (inactive) | – | > 100 µM (inactive) | > 100 µM (inactive) | > 100 µM (inactive) | > 100 µM (inactive) | > 100 µM (inactive) | > 100 µM (inactive) | – | > 100 µM (inactive) | > 100 µM (inactive) | > 100 µM (inactive) | > 100 µM (inactive) | > 100 µM (inactive) | > 100 µM (inactive) | – | – | –
8 | Cc1ccc2c(O)cc(-c3ccc(F)cc3)nc2n1 | 41.3 µM (inactive) | 18.5 | 28.7 µM (inactive) | 25.7 µM (inactive) | 51.1 µM (inactive) | 49 µM (inactive) | 59.2 µM (inactive) | 65.9 µM (inactive) | 24.9 µM (inactive) | 37.1 µM (inactive) | – | 22 µM (inactive) | 26.8 µM (inactive) | 30.1 µM (inactive) | 61.7 µM (inactive) | 52.7 µM (inactive) | – | 26.4 µM (inactive) | 63 µM (inactive) | 81.7 µM (inactive)
